Here are results for three compounds from article PMC10584170, “Machine learning-based phenotypic imaging to characterise the targetable biology of Plasmodium falciparum male gametocytes for the development of transmission-blocking antimalarials” (PLOS Pathogens, 2023).

Where two headings read alike, the source gives them in different places.

Data set [1] relates to P. falciparum female gametocytes. On the set-up: method as in Miguel-Blanco et al 2017. The settings on record: ref Miguel-Blanco et al 2017; read-out: Pf female gametogenesis FGAA IC50; cited from earlier work.
A further data set relates to HepG2 cells. Briefly: HepG2 cytotoxicity counter-screen. The settings on record: for Mean TOX: mean of the HepG2 TOX50 values.
For data set [2], the system named is P. falciparum male gametocytes. Nature of the data set: PhIDDLI timecourse assay, compound added at timepoints after triggering male gametogenesis. Type of data set: cell-based, Plasmodium falciparum NF54. As to conditions: for cells with late phenotype / cells forming exflagellation centres: compound added at 10 min post-induction; for cells forming exflagellation centres: DMSO control 17.2%; for arrest of gametogenesis: compound added concurrent with triggering gametogenesis.

In data set [3] the test system is P. falciparum female gametocytes. Briefly: P. falciparum Dual Gamete Formation Assay (PfDGFA), female readout (Pfs25-positive female gametes). As to conditions: for IC50: this study, read-out: Pf DGFA IC50 FEM. Type of data set: cell-based, Plasmodium falciparum NF54. An outline of the steps:
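Male and female gamete formation were quantified by microscopy image analysis following 24 h incubation of mature NF54 gametocytes with compound and activation at 28°C with xanthurenic acid.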

Data set [4] has the same test system. Nature of the data set: P. falciparum Female Gametocyte Activation Assay (PfFGAA). The format is cell-based, Plasmodium falciparum. As to conditions: Mean TOX HepG2 over FGAA IC50; GREEN = >10-fold; RED = <10-fold.

In general, IC50 refers to the concentration needed to halve the response being measured. Regarding `CC(C)(CNC(=O)[C@H]1CCCCN1)c1nc(-c2ccc(Cl)c(O)c2)c(-c2ccncc2)[nH]1.Cl` [TC04], in data set [1], the IC50 is 530 nM. For the same compound, the “Mean TOX” value with HepG2 cells is given as 40.64 µM. Also, in data set [2], the “cells with late phenotype” value is 86.3%, the “cells forming exflagellation centres” value was 0.4% and the arrest of gametogenesis entry is “near total arrest”. In addition, in data set [3], the “Cytotox ratio Pf Female” value is listed as 39.8 and the half-maximal inhibitory concentration (IC50) was 1020 nM. Also, the “Cytotox ratio Pf FGAA” value in data set [4] worked out at 76.7.

`CC(C)(CN)c1nc(-c2ccc(Br)c(O)c2)c(-c2ccncc2)[nH]1.Cl` [TC13]: the IC50 in data set [1] is 840 nM. In the data set on HepG2 cells (HepG2 value reported with the DGFA screen), the “DGFA Tox50 HepG2” value turned out to be 100 µM. Besides, the “Mean TOX” value in the data set with HepG2 cells was determined as 64.38 µM. Further, in data set [2], the “cells with late phenotype” value is 83.3%, the “cells forming exflagellation centres” value was found to be 2.7% and the arrest of gametogenesis result is on record as “near total arrest”. In data set [3], the “Cytotox ratio Pf Female” value turned out to be 112.9 and the IC50 was determined as 570 nM. Further, in data set [4], the “Cytotox ratio Pf FGAA” value was found to be 76.6.

Turning to `Cl.NCC1(c2nc(-c3ccc(Cl)c(O)c3)c(-c3ccncc3)[nH]2)CCCCC1` [TC41], in data set [1], the IC50 was 210 nM. Moreover, the “Mean TOX” value with HepG2 cells was 22.85 µM. Further, in data set [2], the “cells with late phenotype” value came to 84.9%, the “cells forming exflagellation centres” value is reported as 1.1% and the arrest of gametogenesis result is reported as “near total arrest”. Further, in data set [3], the “Cytotox ratio Pf Female” value is listed as 53.2 and the IC50 was 430 nM. For the same compound, the “Cytotox ratio Pf FGAA” value in data set [4] is given as 108.8.
